What follows are compounds tested against T1, voltage-dependent T-type calcium channel subunit alpha-1G (Cav3.2) (Homo sapiens, UniProt O95180) (assay: FLIPR calcium flux assay, HEK293 cells recombinantly expressing Cav3.2). Conditions: Cav3.2-channel, Fluo-4-AM, 3 min incubation, stimulation with 10 mM CaCl2.
T1 construct: expressed in transfected cells; host or cells: HEK293
Format: cell-based
Outline: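 Calcium influx was triggered by adding CaCl2 to 10 mM final, 3 min after compounds in tetraethylammonium-based buffer, pH 7.2, reached Fluo-4-AM-loaded recombinant HEK293 cells. The integrated kinetic fluorescence signal per concentration gave concentration-response curves by non-linear sigmoidal regression.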

T1 sequence (O95180 whole entry): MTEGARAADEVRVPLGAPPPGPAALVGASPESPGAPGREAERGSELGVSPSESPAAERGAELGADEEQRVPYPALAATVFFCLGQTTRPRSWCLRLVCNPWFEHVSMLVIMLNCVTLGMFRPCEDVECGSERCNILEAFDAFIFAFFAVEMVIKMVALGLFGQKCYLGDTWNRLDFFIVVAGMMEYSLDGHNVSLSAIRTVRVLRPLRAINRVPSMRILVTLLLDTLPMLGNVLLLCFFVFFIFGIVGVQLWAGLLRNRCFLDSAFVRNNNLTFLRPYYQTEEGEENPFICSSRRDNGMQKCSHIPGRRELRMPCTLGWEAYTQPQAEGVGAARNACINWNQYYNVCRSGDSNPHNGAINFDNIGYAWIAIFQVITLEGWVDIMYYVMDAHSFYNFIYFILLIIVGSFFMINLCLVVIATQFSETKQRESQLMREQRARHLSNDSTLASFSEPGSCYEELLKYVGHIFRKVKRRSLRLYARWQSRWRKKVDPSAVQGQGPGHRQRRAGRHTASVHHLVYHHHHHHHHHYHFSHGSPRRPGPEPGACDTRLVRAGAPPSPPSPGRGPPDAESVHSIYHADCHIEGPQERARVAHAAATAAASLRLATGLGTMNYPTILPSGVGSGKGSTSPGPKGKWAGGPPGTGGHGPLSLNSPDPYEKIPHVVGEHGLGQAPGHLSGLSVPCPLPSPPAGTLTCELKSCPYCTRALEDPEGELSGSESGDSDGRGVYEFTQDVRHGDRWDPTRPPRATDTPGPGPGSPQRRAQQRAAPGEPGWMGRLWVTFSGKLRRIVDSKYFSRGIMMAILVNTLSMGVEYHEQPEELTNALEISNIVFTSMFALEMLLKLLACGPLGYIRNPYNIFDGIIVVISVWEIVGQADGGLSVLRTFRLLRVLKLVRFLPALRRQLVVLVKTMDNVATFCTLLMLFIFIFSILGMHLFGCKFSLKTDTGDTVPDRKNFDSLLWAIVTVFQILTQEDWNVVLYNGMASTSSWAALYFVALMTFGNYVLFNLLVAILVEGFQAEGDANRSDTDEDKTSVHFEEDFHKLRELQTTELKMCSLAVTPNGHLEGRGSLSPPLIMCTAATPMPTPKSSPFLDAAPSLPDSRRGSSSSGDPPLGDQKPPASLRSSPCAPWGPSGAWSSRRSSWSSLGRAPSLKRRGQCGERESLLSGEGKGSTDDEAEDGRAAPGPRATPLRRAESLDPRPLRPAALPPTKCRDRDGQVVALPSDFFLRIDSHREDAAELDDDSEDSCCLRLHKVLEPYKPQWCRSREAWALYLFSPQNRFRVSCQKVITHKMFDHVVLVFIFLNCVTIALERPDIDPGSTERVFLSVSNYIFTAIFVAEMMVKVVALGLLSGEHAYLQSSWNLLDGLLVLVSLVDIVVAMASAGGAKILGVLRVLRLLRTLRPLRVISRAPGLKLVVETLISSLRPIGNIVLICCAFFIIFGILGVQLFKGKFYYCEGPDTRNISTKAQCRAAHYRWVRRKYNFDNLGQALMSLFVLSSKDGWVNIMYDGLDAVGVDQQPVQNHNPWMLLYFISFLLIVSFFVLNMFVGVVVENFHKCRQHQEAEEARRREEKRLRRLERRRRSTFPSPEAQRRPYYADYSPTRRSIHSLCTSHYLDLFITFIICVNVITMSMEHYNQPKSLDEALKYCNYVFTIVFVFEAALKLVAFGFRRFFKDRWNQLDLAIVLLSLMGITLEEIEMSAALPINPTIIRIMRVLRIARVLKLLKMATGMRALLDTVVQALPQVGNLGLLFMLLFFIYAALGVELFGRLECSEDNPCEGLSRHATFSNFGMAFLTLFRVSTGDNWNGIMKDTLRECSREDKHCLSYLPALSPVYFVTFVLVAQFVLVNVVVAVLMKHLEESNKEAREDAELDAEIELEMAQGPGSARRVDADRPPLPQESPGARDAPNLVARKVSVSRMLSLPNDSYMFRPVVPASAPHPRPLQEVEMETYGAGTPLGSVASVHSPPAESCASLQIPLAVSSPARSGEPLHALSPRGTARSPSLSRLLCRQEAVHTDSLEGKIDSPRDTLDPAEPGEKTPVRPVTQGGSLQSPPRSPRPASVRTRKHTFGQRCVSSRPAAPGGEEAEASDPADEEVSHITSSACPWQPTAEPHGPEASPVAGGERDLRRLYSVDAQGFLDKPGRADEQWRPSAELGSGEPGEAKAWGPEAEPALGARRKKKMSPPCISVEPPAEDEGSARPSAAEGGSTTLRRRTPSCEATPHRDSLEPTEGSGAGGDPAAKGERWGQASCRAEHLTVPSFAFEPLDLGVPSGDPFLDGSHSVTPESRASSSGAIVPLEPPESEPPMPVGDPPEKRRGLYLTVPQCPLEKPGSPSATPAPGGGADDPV

Structure (SMILES) | IC50 [nM]
N#Cc1ccc(Cn2ccc(NC(=O)Cc3ccc(N4CC(F)(F)C4)cc3)n2)cc1 [Example 50, N-[1-(4-Cyano-benzyl)-1H-pyrazol-3-yl]-2-[4-(3,3-difluoro-azetidin-1-yl)-phenyl]-acetamide] | 11
CC(C)c1ccc(CC(=O)Nc2ccn(Cc3ccc(F)c(Cl)n3)n2)cc1 [Example 211, N-[1-(6-Chloro-5-fluoro-pyridin-2-ylmethyl)-1H-pyrazol-3-yl]-2-(4-isopropyl-phenyl)-acetamide] | 3.1
CC(C)c1ccc(CC(=O)Nc2ccn(Cc3ccc(N4CCC(F)(F)C4)cn3)n2)cc1 [Example 396, N-{1-[5-(3,3-Difluoro-pyrrolidin-1-yl)-pyridin-2-ylmethyl]-1H-pyrazol-3-yl}-2-(4-isopropyl-phenyl)-acetamide] | 369
N#Cc1cc(Cn2ccc(NC(=O)Cc3ccc(OC4CC(F)(F)C4)cc3)n2)ccc1F [Example 281, N-[1-(3-Cyano-4-fluoro-benzyl)-1H-pyrazol-3-yl]-2-[4-(3,3-difluoro-cyclobutoxy)-phenyl]-acetamide] | 21
CC(C)Oc1ccc(Cn2ccc(NC(=O)Cc3ccc(C(C)C)cc3)n2)nc1 [Example 105, N-[1-(5-Isopropoxy-pyridin-2-ylmethyl)-1H-pyrazol-3-yl]-2-(4-isopropyl-phenyl)-acetamide] | 31
Cc1nc2ccc(CC(=O)Nc3ccn(Cc4ccc(C#N)cc4)n3)cc2[nH]1 [Example 136, N-[1-(4-Cyano-benzyl)-1H-pyrazol-3-yl]-2-(2-methyl-3H-benzoimidazol-5-yl)-acetamide] | 1570
CC(C)c1ccc(CC(=O)Nc2ccn(Cc3ccc(C(F)(F)F)cn3)n2)cc1 [Example 109, 2-(4-Isopropyl-phenyl)-N-[1-(5-trifluoromethyl-pyridin-2-ylmethyl)-1H-pyrazol-3-yl]-acetamide] | 22
CCc1cc(CC(=O)Nc2ccn(Cc3ccc(F)c(C#N)n3)n2)ccc1OCC(F)(F)F [Example 412, N-[1-(6-Cyano-5-fluoro-pyridin-2-ylmethyl)-1H-pyrazol-3-yl]-2-[3-ethyl-4-(2,2,2-trifluoro-ethoxy)-phenyl]-acetamide] | 5.3
CCN(C)c1ccc(CC(=O)Nc2ccn(Cc3ccc(C#N)cc3)n2)cn1 [Example 173, N-[1-(4-Cyano-benzyl)-1H-pyrazol-3-yl]-2-[6-(ethyl-methyl-amino)-pyridin-3-yl]-acetamide] | 188
N#Cc1ccc(Cn2ccc(NC(=O)Cc3ccc(C4(F)COC4)cc3)n2)cc1F [Example 253, N-[1-(4-Cyano-3-fluoro-benzyl)-1H-pyrazol-3-yl]-2-[4-(3-fluoro-oxetan-3-yl)-phenyl]-acetamide] | 57
N#Cc1ccc(Cn2ccc(NC(=O)Cc3ccc(OCC4(F)COC4)cc3)n2)nc1 [Example 248, N-[1-(5-Cyano-pyridin-2-ylmethyl)-1H-pyrazol-3-yl]-2-[4-(3-fluoro-oxetan-3-ylmethoxy)-phenyl]-acetamide] | 1810
O=C(Cc1ccc(N2CC[C@H](F)C2)cc1)Nc1ccn(Cc2ccc(F)cc2)n1 [Example 75, N-[1-(4-Fluoro-benzyl)-1H-pyrazol-3-yl]-2-[4-((S)-3-fluoro-pyrrolidin-1-yl)-phenyl]-acetamide] | 5.2
Cn1ccc2ccc(CC(=O)Nc3ccn(Cc4ccc(C#N)cc4)n3)cc21 [Example 297, N-[1-(4-Cyano-benzyl)-1H-pyrazol-3-yl]-2-(1-methyl-1H-indol-6-yl)-acetamide] | 20
O=C(Cc1ccc(C2CC2)nc1)Nc1ccn(Cc2ccc(Cl)c(F)c2)n1 [Example 193, N-[1-(4-Chloro-3-fluoro-benzyl)-1H-pyrazol-3-yl]-2-(6-cyclopropyl-pyridin-3-yl)-acetamide] | 78
Cc1ccc(Cn2ccc(NC(=O)Cc3ccc(N(C)C)nc3)n2)cc1 [Example 13, 2-(6-Dimethylamino-pyridin-3-yl)-N-[1-(4-methyl-benzyl)-1H-pyrazol-3-yl]-acetamide] | 133

From patent US9932314B2, “Pyrazole compounds and their use as T-type calcium channel blockers” (IDORSIA PHARMACEUTICALS LTD, priority 2015, dated 2018)
